Data taken from US5218089A, “Retro-inverso analogues of thymopentin and the method for their synthesis” (Sclavo S.p.A., priority 1988, dated 1993).

Key:
[1] = Stability towards enzymatic hydrolysis in heparinized human plasma; details: 37° C., about 30 nmoles/ml of plasma
Procedure: (§1) The incubations were done at 37° C., and the withdrawn samples of the plasmatic mixture, of 100 μl each, were blocked at the various times by adding trifluoroacetic acid to the extent of 10%, followed by centrifuging at 10,000g for 5 minutes. An aliquot of the supernatant was chromatographed under conditions suitable for showing the change in the peptide concentration at the various times.

[2] = in vitro; details: human, heparinized human plasma
Procedure: as §1

[3] = system: lymphocytes which secrete antibodies (PFC); test: Hemolysis plaque (PFC) test of Jerne and Nordin in SRBC-immunized mice; format: in vivo, C3H/HeNCr1Br inbred male mice; details: 1 ng of peptide orally 2 hours after SRBC i.v., spleen lymphocytes after 4 days, IgM PFC
Procedure: Specifically, hemolysis plates (PFC) were used for the test, which was conducted by the method described by Jerne and Nordin. The test was carried out by intravenously administering to C3H/HeNCr1Br inbred male mice (Calco-Italia) of 10-12 weeks and about 25 g body weight an apyrogenic saline solution (0.2 ml) containing 1-2×10^8 red blood cells from sheep (SRBC). After two hours, groups each containing 3 mice were treated orally (intragastric tube) with 0.2 ml of saline solution (control) or with 0.2 ml of saline solution containing 1 ng of peptide. After 4 days the mice were killed and the spleen withdrawn and dissociated mechanically to separate the lymphocytes. The thus isolated lymphocytes were washed with minimum essential medium (MEM) (3×15 ml) containing Earle's salts and then resuspended in the same medium (1 ml) at a final concentration of 150,000 cells. Each cell suspension (0.1 ml) was then diluted 1:100 with MEM, 100 μl of each dilution being doubly added to microplate wells containing 25 μl of MEM, 25 μl of a 10% solution of SRBC antigens and 25 μl of guinea pig complement at a final dilution of 1:64. The entire suspension was immediately transferred by capillarity from each well to superimposed slides. […]
At the end of this period the direct hemolysis plaques indicating the number of lymphocytes which secrete antibodies (PFC) are counted by a light contrast viewer.

[4] = action of various proteases; cited from earlier work

Molecule	Stability towards enzymatic hydrolysis in human plasma (t/2 in minutes) [1]	half-life [2]	Plaque formation % control [3]	t1/2 in the plasma [4]
CC(C)[C@H](NC(=O)[C@H](CC(=O)O)NC(=O)C(CCCCN)C(=O)N[C@@H](N)CCCNC(=N)N)C(=O)N[C@@H](Cc1ccc(O)cc1)C(=O)O (some centres unmarked)	22 min	22 min	112 % control	–
CC(C)C(C(=O)N[C@H](CC(=O)O)NC(=O)C(CCCCN)C(=O)N[C@@H](N)CCCNC(=N)N)C(=O)N[C@@H](Cc1ccc(O)cc1)C(=O)O (some centres unmarked) [Example 1]	> 300 min	> 300 min	–	–
H-RKDVY-OH [TP5, H-Arg-Lys-Asp-Val-Tyr-OH]	≈ 1.5 minutes	–	104 % control	1.5 min
